Results taken from article PMC3912015, “Synthetic Multivalent Antifungal Peptides Effective against Fungi” (PLoS ONE, 2014).
Values after ≈ are worked out from the molar mass of the structure shown. Where two headings read alike, the source gives them in different places. Bridge positions count the residues as written; N and C are the ends. Peptide text beside a SMILES is read from it. I, II: the chains in the order shown.

How the values were obtained:
Haemolytic assay = format: cell-based; settings: rabbit red blood cells, 440 µM, 4% rabbit erythrocytes, read-out: haemolysis
Procedure: Haemolytic activity of peptides and antifungal drugs were determined against rabbit red blood cells. Briefly, serial dilution of peptides/antifungals in PBS was mixed with rRBC (final concentration 4% v/v), incubated at 37°C for 1 h and centrifuged at 3000 rpm for 10 minutes. The release of hemoglobin in the supernatant was monitored by measuring the hemoglobin absorbance at 576 nm. The readings from cell suspension in PBS (without any additives) or 1% Triton-X100 were used as 0% or 100% haemolysis.

[1] = Intact peptide after trypsin incubation (mass spectrometry); format: in vitro ADME; settings: 6 h incubation with trypsin
Procedure: For all the experiments, unless otherwise stated, C. albicans ATCC 10231 strain was used. B4010 (1 mg/mL) was incubated with trypsin (enzyme:peptide ratio 1∶100) at 37°C. 20 µL aliquot of this mixture was withdrawn at various time intervals (0.5, 1, 2, 4 and 6 h) and mixed with 1 µL of trypsin inhibitor. The antifungal activity of the peptide was determined by adding this mixture to 180 µL of inoculum and monitoring the growth at OD600 for 24 h. Similar experiments performed in the presence of trypsin/trypsin inhibitor (without B4010) were used as a positive control. For assessing the antifungal activity in TF, the peptide was dissolved in freshly collected rabbit TF and incubated at 37°C for 6 h. After incubation, an equal volume of an overnight culture of C. albicans (∼10^6 CFU/mL) was mixed with peptides in tear fluid and incubated at 37°C for 24 h. The final concentrations of the peptide were at 4.4, 8.8 and 22 µM. A 100 µL aliquot of serial dilutions (10^2 or 10^3 times) of this mixture were inoculated on a SD agar plate and then incubated for 48 h at 37°C. Culture alone and culture with 50% tear fluid served as the positive control. The data was expressed in % killing with respect to culture without tear fluid.
Supplementary file pone.0087730.s002.tif: Figure S2 Positive charge electrospray ionization mass spectrometry of B4010 after incubation with trypsin (enzyme:B4010 = 1∶100). […]

[2] = tested on: clinical isolates of C. albicans 2672R and C. albicans 1976R; experiment: MIC against two clinical isolates, with or without 5% human serum; format: cell-based; settings: 48 h
Procedure: (§1) The yeast strains were cultivated and suspended in Sabouraud’s Dextrose (SD) broth diluted to one sixth at a starting OD600 = ∼0.08 in a flat-bottomed microtitre plate. A serial dilution of peptide in the same broth was mixed with the inoculum to give a final peptide concentration of 0.4–22 µM. The antifungal activity was assessed by monitoring the OD600 in cycles of 30 minutes and an orbital shaking at 100 rpm using an Infinite M200 microplate reader (Tecan Group Ltd., Switzerland) for 24/48 h at 37°C. Cultures without peptides were used as positive controls and broth alone or with 22 µM peptide served as negative controls. The minimum concentration required for complete inhibition was assessed by both visible observations as well as by measuring the OD600 and taken as the MIC. Each experiment was repeated in triplicates. For studying the effects of metal ions, SD broth was adjusted with appropriate concentrations of salts to yield a final concentration of 100 and 135 mM for NaCl and KCl and 0.5–2 mM for CaCl2 and MgCl2. MIC determinations were carried out as described above. C. albicans ATCC10231 cells and salts in broth were taken as a positive control. Salts alone (NaCl, KCl, and CaCl2 and MgCl2) in broth or with 22 µM peptide served as a negative control. The effect of 5% human serum on the activities of B4010 against two C. albicans clinical isolates was determined. The human male serum was centrifuged at 13,000 rpm for 10 mins in order to remove the lipids and the supernatant was collected. The MIC values against clinical isolates of C. albicans 2672R and C. albicans 1976R were determined both in standard medium (SD broth) as well as in standard medium containing 5% serum supernatant as before.

F. solani DF1500 = experiment: microbe, parasite or virus in culture; format: cell-based; settings: 48 h
[3] = format: biochemical
Procedure: Small unilamellar vesicles (SUVs) were prepared using PC/PE/PI or PS lipids (5∶2.5∶2.5) containing 15 wt% ergosterol or PC/Cholesterol (10∶1). For the preparation of PC/PE/PI or PS/Erg SUV, the lipids were dissolved in chloroform/methanol (2∶1, v/v) in a glass tube. Ergosterol was dissolved in same solvent and added to lipid mixture to make final ergosterol content of 15 wt%. The Lipid-ergosterol mixture was dried using nitrogen gas to form lipid layer. The film was hydrated in a buffer containing 20 mM PBS (pH 7), vortexed and sonicated. Each cycle of sonication (5 sec, 40°C) was followed by freezing in liquid nitrogen and thawing on a water bath kept at 37°C. The procedure was repeated 5–6 times until an optically clear dispersion appeared. The SUV was divided into two parts. To the first part 50 mM calcein was added and incubated for 1 h. The excess calcein was removed by injecting 100 µL of the calcien-loaded SUV’s into a Ultrahydrogel™ 250 (7.8 mm × 300 mm) column equilibrated with 20 mM PBS (pH 7.0) and eluted isochratically at a flow rate of 1 mL/min for 1.5 column volumes. The calcein-loaded liposomes were mixed with calcein-free liposome (1∶1) to adjust final liposome concentration. Peptide concentration was added to obtain 1∶30 or 1∶15 peptide:liposome ratio. Changes in the fluorescence signal after addition of peptide or Triton X-100 was measured on a PTI spectrofluorometer, using an excitation wavelength of 480 nm and emission wavelength of 512 nm. The Percentage calcein released at each time point was calculated using the equation, [drawing 1]
Where A0 is the observed fluorescence intensity upon addition of peptides, Amin is the average intensity at the baseline (before peptide addition), Amax is the average intensity at the saturation phase after adding 1% Triton X-100. Similar protocol was followed for the preparation of PC/Cholesterol SUVs.

C. albicans ATCC24433 = experiment: microbe, parasite or virus in culture; format: cell-based; settings: ATCC24433, 48 h
Procedure: as §1

C. albicans DF1976R = experiment: microbe, parasite or virus in culture; format: cell-based; settings: DF1976R, 48 h; read-out: MIC in µM against Ca DF1976R
Procedure: as §1

C. albicans ATCC2091 = experiment: microbe, parasite or virus in culture; format: cell-based; settings: ATCC2091, 48 h
Procedure: as §1

C. albicans ATCC10231 = experiment: microbe, parasite or virus in culture; format: cell-based; settings: ATCC10231, 48 h; read-out: MIC in µM against Ca 10231
Procedure: as §1

F. solani ATCC36031 = experiment: microbe, parasite or virus in culture; format: cell-based; settings: ATCC36031, 48 h

CC(C)[C@H](NC(=O)[C@H](CCCCN)NC(=O)[C@H](CCCNC(=N)N)NC(=O)CNC(=O)[C@@H](N)CCCNC(=N)N)C(=O)N[C@H](C(=O)N[C@@H](CCCNC(=N)N)C(=O)N[C@@H](CCCNC(=N)N)C(=O)NCCCC[C@H](NC(=O)[C@H](CCCNC(=N)N)NC(=O)[C@H](CCCNC(=N)N)NC(=O)[C@@H](NC(=O)[C@@H](NC(=O)[C@H](CCCCN)NC(=O)[C@H](CCCNC(=N)N)NC(=O)CNC(=O)[C@@H](N)CCCNC(=N)N)C(C)C)C(C)C)C(=O)NCCCC[C@H](NC(=O)[C@H](CCCCNC(=O)[C@H](CCCNC(=N)N)NC(=O)[C@H](CCCNC(=N)N)NC(=O)[C@@H](NC(=O)[C@@H](NC(=O)[C@H](CCCCN)NC(=O)[C@H](CCCNC(=N)N)NC(=O)CNC(=O)[C@@H](N)CCCNC(=N)N)C(C)C)C(C)C)NC(=O)[C@H](CCCNC(=N)N)NC(=O)[C@H](CCCNC(=N)N)NC(=O)[C@@H](NC(=O)[C@@H](NC(=O)[C@H](CCCCN)NC(=O)[C@H](CCCNC(=N)N)NC(=O)CNC(=O)[C@@H](N)CCCNC(=N)N)C(C)C)C(C)C)C(=O)N[C@@H](CCCCN)C(=O)O)C(C)C [B4010] (I: H-RGRKVVRRKKK-OH / II: H-RGRKVVRRK / III: H-RGRKVVRR / IV: H-RGRKVVRR; amide I:9-IV:C, I:10-II:C, II:9-III:C; N-terminus and C-terminus assumed)
hemolysis at 1 h, 440 µM (Haemolytic assay): < 1%
remaining at 6 h, 1 mg/mL [1]: ~20%
MIC [2]: 0.37 µM (≈ 1.69 µg/mL)
MIC (F. solani DF1500): 1.4 µM (≈ 6.39 µg/mL)
% Calcein released from PC/PE/PS/Erg [3]: ~68%
dye (calcein) release [3]: ~46%
MIC (C. albicans ATCC24433; read-out: MIC): 1.4 µM (≈ 6.39 µg/mL)
MIC (C. albicans ATCC24433; read-out: MIC in µM against Ca 24433): 1.4 µM (≈ 6.39 µg/mL)
MIC (C. albicans DF1976R): 0.37 µM (≈ 1.69 µg/mL)
MIC (C. albicans ATCC2091; read-out: MIC): 0.7 µM (≈ 3.19 µg/mL)
MIC (C. albicans ATCC2091; read-out: MIC in µM against Ca 2091): 0.7 µM (≈ 3.19 µg/mL)
MIC (C. albicans ATCC10231): 1.4 µM (≈ 6.39 µg/mL)
MIC (F. solani ATCC36031): 1.4 µM (≈ 6.39 µg/mL)
